# Patent publication US20250151724A1, “Liquid Soil Treatments Containing Choline” (Harrell's, LLC, priority 2023, published 2025)
# Where two headings read alike, the source gives them in different places.
# How the values were obtained:
# [1] = test system: creeping bentgrass putting green
# Method: The study was carried out on a creeping bentgrass putting green. There were two separate trials (Trial 1 and Trial 2). Trial 1 and Trial 2 were conducted side by side. Each trial consisted of 2 treatments with 4 replications. Plot size was 5×6 ft. Regular mowing and irrigation were performed. A randomized block design was used.
# The treatments were as follows: • I. Choline Trial 1-Biweekly • 1. Fertilized Control • 2. Choline 0.5 oz./1,000 ft^2 every two weeks • II. Choline Trial 2-Monthly • 1. Fertilized Control • 2. Choline 0.5 oz./1,000 ft^2 every month
# Between 0.125″ and 0.25″ of irrigation was applied 3-4 hours post application. All treatments received equal fertility (applied bi-weekly) with 28-8-18 with UMAXX® fertilizer (Harrell's, Lakeland, Florida) applied on the day following application of treatments.
# The trials lasted for 15 weeks and a total of 7 treatment applications in the bi-weekly trial and 4 treatment applications in the monthly trial. The following measurements data were taken at the specified intervals throughout the trials: • a. Volumetric water content (VWC) was measured with a TDR350 moisture sensor (Turf-Tec Intentional, Tallahassee, FL) every 2 weeks. In addition, beginning on days 13, 34, and 69, irrigation was withheld for about 9 days to allow gradual decline of the soil water content, inducing significant decline in leaf color and turf quality. Volumetric water content was measured at day 0 (the day of initiation of irrigation withholding), day 3, day 6, and day 9. Irrigation was resumed after day 9 of the first and second dry down cycle. […] Three readings of VWC were collected from each plot and the average was used for statistical analysis. • b. Leaf color was rated based on a visual scale of 1 through 9, with 1 indicating brown color and 9 indicating dark green color. • c. Turf quality was rated based on a visual scale of 1 through 9, with 9 indicating the best quality and 6 indicating the minimum commercially acceptable quality.
# [2] = Method: Soil cores (1 inch diameter and 6 inches deep) were taken from a creeping bentgrass putting green and dried at 65° C. for 48 hours then allowed to air dry for 2 days. […] The soil cores were allowed to air dry for additional 4 days and the water drop penetration test was repeated using the same method. The four treatments were 1) control (distilled water), 2) distilled water plus choline at 0.125 oz./1,000 ft^2, 3) distilled water plus choline at 0.25 oz./1,000 ft^2, and 4) distilled water plus choline at 0.5 oz./1,000 ft^2. There were 3 replications for each treatment. The water drops from distilled water or choline solution were placed on soil cores 0.75 inch from the soil surface. As soon as the water drops reached the soil, a timer was started. When each water drop had disappeared and the water had penetrated into the soil, the time elapsed was recorded.
# [3] = 0.5 oz/1000 ft^2 biweekly, day 0
# [4] = 0.5 oz/1000 ft^2 biweekly, day 14
# [5] = 0.5 oz/1000 ft^2 biweekly, day 17
# [6] = 0.5 oz/1000 ft^2 biweekly, day 20
# [7] = 0.5 oz/1000 ft^2 biweekly, day 22
# [8] = 0.5 oz/1000 ft^2 biweekly, day 29
# [9] = 0.5 oz/1000 ft^2 biweekly, day 34
# [10] = 0.5 oz/1000 ft^2 biweekly, day 38
# [11] = 0.5 oz/1000 ft^2 biweekly, day 41
# [12] = 0.5 oz/1000 ft^2 biweekly, day 43
# [13] = 0.5 oz/1000 ft^2 biweekly, day 57
# [14] = 0.5 oz/1000 ft^2 biweekly, day 71
# [15] = 0.5 oz/1000 ft^2 biweekly, day 76
# [16] = 0.5 oz/1000 ft^2 biweekly, day 78
# [17] = 0.5 oz/1000 ft^2 biweekly, day 84
# [18] = 0.5 oz/1000 ft^2 biweekly, day 98
# [19] = 0.5 oz/1000 ft^2 monthly, day 0
# [20] = 0.5 oz/1000 ft^2 monthly, day 14
# [21] = 0.5 oz/1000 ft^2 monthly, day 17
# [22] = 0.5 oz/1000 ft^2 monthly, day 20
# [23] = 0.5 oz/1000 ft^2 monthly, day 22
# [24] = 0.5 oz/1000 ft^2 monthly, day 29
# [25] = 0.5 oz/1000 ft^2 monthly, day 34
# [26] = 0.5 oz/1000 ft^2 monthly, day 38
# [27] = 0.5 oz/1000 ft^2 monthly, day 41
# [28] = 0.5 oz/1000 ft^2 monthly, day 43
# [29] = 0.5 oz/1000 ft^2 monthly, day 57
# [30] = 0.5 oz/1000 ft^2 monthly, day 71
# [31] = 0.5 oz/1000 ft^2 monthly, day 76
# [32] = 0.5 oz/1000 ft^2 monthly, day 78
# [33] = 0.5 oz/1000 ft^2 monthly, day 84
# [34] = 0.5 oz/1000 ft^2 monthly, day 98
# [35] = choline 0.125 oz/1000 ft2 in distilled water
# [36] = choline 0.25 oz/1000 ft2 in distilled water
# [37] = choline 0.5 oz/1000 ft2 in distilled water
compound,measurement,setting,value
"C[N+](C)(C)CCO.[Cl-] [Choline, choline chloride]","Leaf color (1-9, 9 = dark green)",[1]; [3],7.0a
same,"Turf quality (1-9, 9 = best)",[1]; [3],6.9a
same,"Leaf color (1-9, 9 = dark green)",[1]; [4],7.0a
same,"Turf quality (1-9, 9 = best)",[1]; [4],7.1a
same,"Leaf color (1-9, 9 = dark green)",[1]; [5],7.0a
same,"Turf quality (1-9, 9 = best)",[1]; [5],7.0a
same,"Leaf color (1-9, 9 = dark green)",[1]; [6],7.0a
same,"Turf quality (1-9, 9 = best)",[1]; [6],7.0a
same,"Leaf color (1-9, 9 = dark green)",[1]; [7],6.9a
same,"Turf quality (1-9, 9 = best)",[1]; [7],7.0a
same,"Leaf color (1-9, 9 = dark green)",[1]; [8],7.0a
same,"Turf quality (1-9, 9 = best)",[1]; [8],7.0a
same,"Leaf color (1-9, 9 = dark green)",[1]; [9],7.4a
same,"Turf quality (1-9, 9 = best)",[1]; [9],6.9a
same,"Leaf color (1-9, 9 = dark green)",[1]; [10],7.5a
same,"Turf quality (1-9, 9 = best)",[1]; [10],7.1a
same,"Leaf color (1-9, 9 = dark green)",[1]; [11],7.4a
same,"Turf quality (1-9, 9 = best)",[1]; [11],7.0a
same,"Leaf color (1-9, 9 = dark green)",[1]; [12],7.1a
same,"Turf quality (1-9, 9 = best)",[1]; [12],6.5a
same,"Leaf color (1-9, 9 = dark green)",[1]; [13],6.5a
same,"Turf quality (1-9, 9 = best)",[1]; [13],5.9a
same,"Leaf color (1-9, 9 = dark green)",[1]; [14],6.4a
same,"Turf quality (1-9, 9 = best)",[1]; [14],6.1a
same,"Leaf color (1-9, 9 = dark green)",[1]; [15],6.5a
same,"Turf quality (1-9, 9 = best)",[1]; [15],6.0a
same,"Leaf color (1-9, 9 = dark green)",[1]; [16],6.4a
same,"Turf quality (1-9, 9 = best)",[1]; [16],5.6a
same,"Leaf color (1-9, 9 = dark green)",[1]; [17],6.8a
same,"Turf quality (1-9, 9 = best)",[1]; [17],5.8a
same,"Leaf color (1-9, 9 = dark green)",[1]; [18],7.0a
same,"Turf quality (1-9, 9 = best)",[1]; [18],6.1a
same,"Leaf color (1-9, 9 = dark green)",[1]; [19],7.0a
same,"Turf quality (1-9, 9 = best)",[1]; [19],7.0a
same,"Leaf color (1-9, 9 = dark green)",[1]; [20],6.9a
same,"Turf quality (1-9, 9 = best)",[1]; [20],6.9a
same,"Leaf color (1-9, 9 = dark green)",[1]; [21],7.0a
same,"Turf quality (1-9, 9 = best)",[1]; [21],7.0a
same,"Leaf color (1-9, 9 = dark green)",[1]; [22],7.0a
same,"Turf quality (1-9, 9 = best)",[1]; [22],7.3a
same,"Leaf color (1-9, 9 = dark green)",[1]; [23],6.9a
same,"Turf quality (1-9, 9 = best)",[1]; [23],6.6a
same,"Leaf color (1-9, 9 = dark green)",[1]; [24],7.0a
same,"Turf quality (1-9, 9 = best)",[1]; [24],6.6a
same,"Leaf color (1-9, 9 = dark green)",[1]; [25],7.5a
same,"Turf quality (1-9, 9 = best)",[1]; [25],7.3a
same,"Leaf color (1-9, 9 = dark green)",[1]; [26],7.1a
same,"Turf quality (1-9, 9 = best)",[1]; [26],7.0a
same,"Leaf color (1-9, 9 = dark green)",[1]; [27],7.5a
same,"Turf quality (1-9, 9 = best)",[1]; [27],7.0a
same,"Leaf color (1-9, 9 = dark green)",[1]; [28],6.9a
same,"Turf quality (1-9, 9 = best)",[1]; [28],6.6a
same,"Leaf color (1-9, 9 = dark green)",[1]; [29],7.1a
same,"Turf quality (1-9, 9 = best)",[1]; [29],6.8a
same,"Leaf color (1-9, 9 = dark green)",[1]; [30],6.9a
same,"Turf quality (1-9, 9 = best)",[1]; [30],6.8a
same,"Leaf color (1-9, 9 = dark green)",[1]; [31],7.0a
same,"Turf quality (1-9, 9 = best)",[1]; [31],6.6a
same,"Leaf color (1-9, 9 = dark green)",[1]; [32],7.0a
same,"Turf quality (1-9, 9 = best)",[1]; [32],6.5a
same,"Leaf color (1-9, 9 = dark green)",[1]; [33],7.3a
same,"Turf quality (1-9, 9 = best)",[1]; [33],7.0a
same,"Leaf color (1-9, 9 = dark green)",[1]; [34],7.7a
same,"Turf quality (1-9, 9 = best)",[1]; [34],7.3a
same,"time of water drop penetration, first test","[2]; 2 days after oven drying of soil cores, not quantified",reduced the time of water drop penetration
same,"Time of water drop penetration, Average",[2]; [35],250.3ab seconds
same,"Time of water drop penetration, Rep I",[2]; [35],454 s
same,"Time of water drop penetration, Rep II",[2]; [35],106 s
same,"Time of water drop penetration, Rep III",[2]; [35],191 s
same,"Time of water drop penetration, Average","[2]; choline 0.125 oz/1000 ft2 in distilled water, listed as choline",250.3 s
same,"Time of water drop penetration, Average",[2]; [36],129.7ab seconds
same,"Time of water drop penetration, Rep I",[2]; [36],110 s
same,"Time of water drop penetration, Rep II",[2]; [36],72 s
same,"Time of water drop penetration, Rep III",[2]; [36],207 s
same,"Time of water drop penetration, Average","[2]; choline 0.25 oz/1000 ft2 in distilled water, listed as choline",129.7 s
same,"Time of water drop penetration, Average",[2]; [37],97.7b seconds
same,"Time of water drop penetration, Rep I",[2]; [37],97 s
same,"Time of water drop penetration, Rep II",[2]; [37],26 s
same,"Time of water drop penetration, Rep III",[2]; [37],170 s
same,"Time of water drop penetration, Average","[2]; choline 0.5 oz/1000 ft2 in distilled water, listed as choline",97.7 s
same,Water drop penetration time shorter relative to the control (distilled water),"[2]; choline solution 0.5 oz./1,000 ft^2",2.5 fold
